Source: patent US4200760A, “Imidazolylalkylthioalkylamino-ethylene derivatives” (Bristol-Myers Company, priority 1978, dated 1980)

Key:
[1] = system: gastric acid output; experiment: Gastric antisecretory activity in the two hour pylorus ligated (Shay) rat; type: in vivo, rat (male Long Evans); settings: for ED50: 2 h, read-out: ED50 (acid output); for Potency Ratio: relative to cimetidine
From the text: The pyloric ligation procedure in the rat was designed by Shay et al., Gastroenterology, 5, 53 (1945) for the study of perforating gastric ulcers; however, as the method became known, it was also employed as a means of studying rat gastric secretion, Shay et al., Gastroenterology, 26, 906 (1954), Brodie, D. A., Am. J. Dig. Dis., 11, 231 (1966). A modification of this procedure is presently used to evaluate compounds for gastric antisecretory activity.
Male Long Evans rats, 280-300 gm., are used. The animals are placed in individual cages and fasted for 24 hours with free access to water. Under ether anesthesia, the stomach is reached through a midline incision, and a cotton-thread ligature is placed around the pylorus. […] All compounds are solubilized with one equivalent of HCl and brought to the proper volume with water. The animals are returned to their cages from which the water bottles have been removed and two hours later are sacrificed with ether. The stomach is removed and the two hour gastric collection is drained into a graduated test tube for volume determination. Titratable acidity is measured by titrating a one ml. sample to pH 7.0 with 0.02 N NaOH, using an Autoburet and an electrometric pH meter (Radiometer). Titratable acid output is calculated in microequivalents by multiplying the volume in milliliters by the acid concentration in milliequivalents per liter. The percent inhibition of acid output is calculated as follows: [formula]

[2] = system: gastric acid output; experiment: Gastric antisecretory activity in the gastric fistula dog (histamine-induced gastric acid output); type: in vivo, dog (beagle); settings: for ED50: Canis lupus familiaris, read-out: ED50 (acid output); for Potency Ratio: relative to cimetidine
Protocol: Thomas type [Thomas, J. E., Proc. Soc. exp. Biol. Med., 46, 260 (1941)] stainless steel cannulae are inserted into the stomachs of beagle dogs (10-12 kg.) just orad to the pyloric gland area near the greater curvature to provide a chronic gastric fistula. Animals are allowed to recover for at least two months before any testing is done. Dogs are fasted overnight (~18 hours) with water ad lib prior to each experiment. The dogs are placed in a sling and an eight inch inside needle catheter (C. R. Baird, Inc.) with a two inch 17 gauge needle is inserted into a leg vein for purposes of drug administration. Gastric secretions are collected every 15 minutes by gravity drainage from the opened cannula. […] A modification of the procedure described by Grossman and Konturek, Gastroenterology, 66, 517 (1974) was followed. […] Each 15 minute sample of gastric juice is measured to the nearest 0.5 ml. and titratable acidity against 0.02 N NaOH (endpoint pH 7.0) is measured with an Autoburet and pH meter (radiometer).The percent inhibition of acid output is calculated as described in the pylorus ligated rat procedure.

[3] = biological target: T1, histamine H2-receptors (Cavia porcellus, UniProt P47747); experiment: Histamine H2-receptor antagonism, isolated guinea pig right atria assay; set-up: species or system guinea pig (male Hartley strain); settings: for Histamine ED50 after test compound / Concentration-Response Curve Displacement Factor: test compound 3 × 10^-5 M; for Histamine ED50 after test compound: 30 minute incubation; for Concentration-Response Curve Displacement Factor: shift of histamine curve to the right
T1 construct: The spontaneously beating right atrium was dissected free from other tissues; from tissue; host or cells: isolated spontaneously beating right atrium, male Hartley guinea pig
T1 sequence (P47747 whole entry): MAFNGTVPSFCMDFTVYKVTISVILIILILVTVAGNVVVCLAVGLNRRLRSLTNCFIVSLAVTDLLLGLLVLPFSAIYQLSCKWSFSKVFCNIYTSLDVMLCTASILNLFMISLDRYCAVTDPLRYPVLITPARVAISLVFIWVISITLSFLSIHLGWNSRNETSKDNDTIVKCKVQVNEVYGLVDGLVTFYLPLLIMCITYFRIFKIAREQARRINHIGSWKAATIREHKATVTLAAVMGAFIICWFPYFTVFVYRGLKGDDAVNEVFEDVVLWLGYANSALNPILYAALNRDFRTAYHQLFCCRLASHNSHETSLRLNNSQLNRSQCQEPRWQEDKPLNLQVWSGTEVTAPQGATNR
Protocol: Subsequent investigations by Hughes and Coret, Proc. Soc. […] Black et al., Agents and Actions, 3, 133 (1973) and Brimblecombe et al., Fed. […] The present comparative studies were carried out using a modification of the procedure reported by Reinhardt et al., Agents and Actions, 4, 217 (1974).
Male Hartley strain guinea pigs (350-450 gm.) were sacrificed by a blow on the head. The heart was excised and placed in a Petri dish of oxygenated (95% O2, 5% CO2) modified Krebs solution (g./liter: NaCl 6.6, KCl 0.35, MgSO4.7 H2 O 0.295, KH2 PO4 0.162, CaCl2 0.238, NaHCO3 2.1 and dextrose 2.09). The spontaneously beating right atrium was dissected free from other tissues and a silk thread (4-O) attached to each end. The atrium was suspended in a 20 ml. muscle chamber containing oxygenated modified Krebs solution maintained at 32° C. Atrial contractions were recorded isometrically by means of a Grass FT 0.03 force displacement transducer and recordings of contractile force and rate were made with a Beckman RP Dynograph.
A resting tension of 1 g. was applied to the atrium and it was allowed to equilibrate for 1 hour.
Concentration-response curve displacement factors were calculated as follows: [formula] […] [formula]

[4] = system: gastric secretion; settings: animals and man; cited from earlier work
[5] = cited from earlier work
[6] = biological target: T1, histamine H2-receptors; settings: Black et al., isolated guinea pig right atria; cited from earlier work
[7] = system: peptic ulcer disease; settings: clinical evaluation, Gray et al.; cited from earlier work
[8] = system: agranulocytosis; settings: in vivo; cited from earlier work
[9] = system: H2 receptors; settings: cited from earlier work
[10] = ip, two hour pylorus ligated rat
[11] = compared with cimetidine and Compound XII
[12] = iv, histamine-stimulated gastric fistula dog
[13] = 1.50 μMole/kg iv (BL-5949: one dog at this dose)

Histamine ED50 after test compound [3]	Concentration-Response Curve Displacement Factor [3]	Structure (SMILES)	Percent Inhibition Acid Output ([1]; 2.5 μMole/kg ip)	Percent Inhibition Acid Output ([1]; 5 μMole/kg ip)	Percent Inhibition Acid Output ([1]; 20 μMole/kg ip)	ED50 [1, 10]	Potency Ratio ([1]; ip)	Percent Inhibition Acid Output ([2]; 0.375 μMole/kg iv)	Percent Inhibition Acid Output ([2]; 0.75 μMole/kg iv)	ED50 [2, 12]	Potency Ratio ([2]; iv)	Inhibition of gastric secretion / oral activity (in words) [4]	Percent Inhibition Acid Output ([1]; 10 μMole/kg ip)	Percent Inhibition Acid Output ([1]; 40 μMole/kg ip)	Toxicity (agranulocytosis) [8]	H2 antagonist activity (in words) [9]	Percent Inhibition Acid Output [2, 13]	other results
14.05 µg/mL	46.83	C#CCNC(=C[N+](=O)[O-])NCCSCc1[nH]cnc1C [BL-5949, 1-Nitro-2-(2-propynylamino)-2-{2-[(4-methyl-1H-imidazol-5-yl)methylthio]ethylamino}ethylene]	33%	51%	87%	4.62 µmol/kg	2.26	62%	68%	0.24 µmol/kg	5.56							Potency as inhibitor of gastric secretion in rats (in words) [1, 11]: more potent than either cimetidine or Compound XII; times more potent than Compound XII ([1]; relative to Compound XII, ip): 3.7 times; Percent Inhibition Acid Output ([2]; 0.0938 μMole/kg iv): 34%; Percent Inhibition Acid Output ([2]; 0.1875 μMole/kg iv): 46%; Potency as inhibitor of gastric secretion in dogs (in words) [2, 11]: more potent than either cimetidine or Compound XII; times more potent than Compound XII ([2]; relative to Compound XII, iv): 3.8 times; Potency as histamine H2-receptor antagonist in isolated guinea pig atria (in words) [3, 11]: more potent than either cimetidine or Compound XII; times as active as Compound XII ([3]; relative to Compound XII): about 2.7 times
		CNC(=S)NCCCCc1cnc[nH]1 [Burimamide]										inhibits gastric secretion in animals and man						oral absorption ([5]; oral): poor; Type of antagonism at histamine H2-receptors (in words) [6]: competitive antagonist of these receptors
4.30 µg/mL	17.92	CNC(=C[N+](=O)[O-])NCCSCc1[nH]cnc1C [Compound XII]			64%	17.2 µmol/kg	0.61	22%	42%	0.9 µmol/kg	1.47		25%	86%			73%	
		NCCc1c[nH]cn1 [Histamine]																Histamine ED50 (control, before test compound) ([3]; control of Compound XII series, N=2, contractile rate): 0.24 µg/mL
		CNC(=S)NCCSCc1[nH]cnc1C [Metiamide]										orally active in man			toxicity (agranulocytosis)	more potent than burimamide		

Structure (SMILES)	Histamine ED50 after test compound [3]	Concentration-Response Curve Displacement Factor [3]	Percent Inhibition Acid Output ([1]; 2.5 μMole/kg ip)	Percent Inhibition Acid Output ([1]; 5 μMole/kg ip)	Percent Inhibition Acid Output ([1]; 20 μMole/kg ip)	ED50 [1, 10]	Potency Ratio ([1]; ip)	Percent Inhibition Acid Output ([2]; 0.375 μMole/kg iv)	Percent Inhibition Acid Output ([2]; 0.75 μMole/kg iv)	ED50 [2, 12]	Potency Ratio ([2]; iv)	Inhibition of gastric secretion / oral activity (in words) [4]	Percent Inhibition Acid Output ([1]; 10 μMole/kg ip)	Percent Inhibition Acid Output ([1]; 40 μMole/kg ip)	Toxicity (agranulocytosis) [8]	H2 antagonist activity (in words) [9]	Percent Inhibition Acid Output [2, 13]	other results
CNC(=NC#N)NCCSCc1[nH]cnc1C [Cimetidine]	4.80 µg/mL	25.26	9%	53%	57%				37%				41%	72%	without producing agranulocytosis	as effective an H2 antagonist as metiamide	53%	Efficacy in the treatment of peptic ulcer disease (in words) [7]: effective therapeutic agent in the treatment of peptic ulcer disease; ED50 ([1]; Rattus norvegicus, ip): 10.4 µmol/kg; Percent Inhibition Acid Output ([2]; 3.0 μMole/kg iv): 73%; ED50 ([2]; iv): 1.33 µmol/kg; half-life ([5]; in vivo): relatively short
